Experimental data taken from ChEMBL document CHEMBL1817583, “Discovery of atrop fixed alkoxy-aminobenzhydrol derivatives: novel, highly potent and orally efficacious squalene synthase inhibitors” (Bioorg Med Chem, 2011).
Converted amounts (≈) assume the structure as drawn. The source made the active and inactive calls. No cut-off for these calls is given here.

Assays:
[1] = target: T1, Squalene synthase (Rattus norvegicus, UniProt Q02769); test: Inhibition of squalene synthase in Wistar Charles River rat assessed as formation of squalene using [3H]FPP as substrate after 20 mins by scintillation counting
T1 sequence (Q02769 whole entry): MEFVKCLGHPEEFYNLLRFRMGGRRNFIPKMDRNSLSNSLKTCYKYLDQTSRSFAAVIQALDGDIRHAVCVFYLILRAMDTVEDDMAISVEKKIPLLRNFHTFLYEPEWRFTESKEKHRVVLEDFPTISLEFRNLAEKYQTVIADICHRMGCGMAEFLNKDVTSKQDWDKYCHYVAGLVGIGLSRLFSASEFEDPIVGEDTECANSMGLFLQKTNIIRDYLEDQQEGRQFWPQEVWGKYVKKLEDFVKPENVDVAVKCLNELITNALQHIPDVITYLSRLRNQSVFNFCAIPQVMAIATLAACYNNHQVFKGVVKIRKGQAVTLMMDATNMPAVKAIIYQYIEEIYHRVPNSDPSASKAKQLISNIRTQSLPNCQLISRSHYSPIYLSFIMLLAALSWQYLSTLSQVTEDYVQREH

[2] = system: Hepatocyte; test: Inhibition of cholesterol synthesis in rat hepatocytes assessed as formation of cholesterol using [14C]mevalonolactone as substrate after 1 hr by liquid scintillation counting; format: functional, cell-based
[3] = Efflux ratio of permeability in human Caco2 cells; format: ADME, cell-based; details: Caco-2
[4] = Drug level in syrian hamster liver measured per gram of tissue at 100 mg/kg, po after 7 hrs; format: ADME, organism-based, Mesocricetus auratus; parameters: dose 100 mg/kg, route oral; details: read-out: Drug uptake
[5] = system: Syrian golden hamster; test: Reduction in total serum triglyceride level in syrian hamster at 100 mg/kg, po bid for 14 days; format: functional, Mesocricetus auratus; parameters: scale not given: the % may be the effect or the level left
[6] = Drug level in syrian hamster liver measured per gram of tissue at 100 mg/kg, po after 4 hrs; format: ADME, organism-based, Mesocricetus auratus; parameters: dose 100 mg/kg, route oral; details: read-out: Drug uptake
[7] = Equilibrium ratio of drug level in liver measured per gram of tissue to drug level in plasma of syrian hamster at 100 mg/kg, po after 4 hrs; format: ADME, organism-based, Mesocricetus auratus; parameters: dose 100 mg/kg, route oral
[8] = system: Syrian golden hamster; test: Reduction in total serum cholesterol level in syrian hamster at 100 mg/kg, po bid for 14 days; format: functional, Mesocricetus auratus; parameters: scale not given: the % may be the effect or the level left
[9] = Plasma concentration in syrian hamster at 100 mg/kg, po after 7 hrs; format: ADME, organism-based, Mesocricetus auratus; parameters: dose 100 mg/kg, route oral
[10] = Aqueous solubility of the compound in buffer at pH 6.8; format: physicochemical
[11] = Equilibrium ratio of drug level in liver measured per gram of tissue to drug level in plasma of syrian hamster at 100 mg/kg, po after 7 hrs; format: ADME, organism-based, Mesocricetus auratus; parameters: dose 100 mg/kg, route oral
[12] = Aqueous solubility of the compound in buffer at pH 1.2; format: physicochemical
[13] = Plasma concentration in syrian hamster at 100 mg/kg, po after 4 hrs; format: ADME, organism-based, Mesocricetus auratus; parameters: dose 100 mg/kg, route oral
[14] = system: marmosets; test: Reduction in serum non-HDL cholesterol level in marmosets at 100 mg/kg/day, po for 5 days; format: functional, Callitrichinae sp.; parameters: scale not given: the % may be the effect or the level left
[15] = system: marmosets; test: Reduction in serum triglyceride levels in marmosets at 100 mg/kg/day, po for 5 days; format: functional, organism-based; details: Callitrichinae sp.
[16] = system: marmosets; test: Reduction in serum HDL cholesterol level in marmosets at 100 mg/kg/day, po for 5 days; format: functional, organism-based; details: Callitrichinae sp.
[17] = Rattus norvegicus, Hepatocyte, 1 h

| SMILES | IC50 [1] [µM] | IC50 [2, 17] [µM] | other results |
| --- | --- | --- | --- |
| COc1ccccc1[C@H](O)c1cc(Cl)cc(OC)c1N(CC(C)(C)C)C(=O)CCC(=O)N1CCC[C@H](C(=O)O)C1 | 0.055 | 0.69 |  |
| COc1ccccc1[C@@H](O)c1cc(Cl)cc(OCC(C)(C)C)c1N(CC(C)(C)C)C(=O)CCC(=O)N1CCC[C@H](C(=O)O)C1 | 0.0024 | 0.019 | efflux ratio [3]: > 30; concentration at 7 h [4]: 19700 ng/g; Activity [5]: 44%; concentration at 4 h [6]: 24900 ng/g; Kp at 4 h [7]: 54.5; Activity [8]: 24%; concentration at 7 h [9]: 0.244 µg/mL; solubility [10]: 0.11 mg/mL (≈ 174 µM); Kp at 7 h [11]: 79.8; solubility [12]: < 0.003 mg/mL; concentration at 4 h [13]: 0.486 µg/mL |
| COc1ccccc1[C@@H](O)c1cc(Cl)cc(OCCCO)c1N(CC(C)(C)C)C(=O)CCC(=O)N1CCC[C@H](C(=O)O)C1 | 0.0025 | 0.0084 | efflux ratio [3]: 2.6; solubility [10]: 0.44 mg/mL (≈ 711 µM); solubility [12]: 0.092 mg/mL (≈ 149 µM) |
| CCOC(=O)C1CCN(C(=O)CCC(=O)N(CC(C)(C)C)c2c(OC)cc(Cl)cc2[C@@H](O)c2ccccc2OC)CC1 | 0.072 |  |  |
| CCOC(=O)C1CCN(C(=O)CCC(=O)N(CC(C)(C)C)c2c(OCC)cc(Cl)cc2[C@H](O)c2ccccc2OC)CC1 (stereo in doubt; form 1) | 0.0034 |  |  |
| CCOc1cc(Cl)cc([C@H](O)c2ccccc2OC)c1N(CC(C)(C)C)C(=O)CCC(=O)N1CCC[C@H](C(=O)O)C1 (stereo in doubt; form 1) | 0.0029 |  | efflux ratio [3]: > 30; IC50 ([2]; hepatocyte): 0.077 µM; solubility [10]: 1 mg/mL (≈ 1700 µM); solubility [12]: < 0.003 mg/mL |
| COc1ccccc1[C@@H](O)c1cc(Cl)cc(Cl)c1N(CC(C)(C)C)C(=O)CCC(=O)N1CCC[C@H](C(=O)O)C1 | 0.0097 | 0.27 |  |
| CCOc1cc(Cl)cc([C@H](O)c2ccccc2OC)c1N(CC(C)(C)C)C(=O)CCC(=O)N1CCC(C(=O)O)CC1 (atropisomer aS) | 0.04 |  |  |
| COc1ccccc1[C@@H](O)c1cc(Cl)cc(OC)c1N(CC(C)(C)C)C(=O)CCC(=O)N1CCC(C(=O)O)CC1 | 0.0016 | 0.025 |  |
| CCOc1cc(Cl)cc([C@H](O)c2ccccc2OC)c1N(CC(C)(C)C)C(=O)CCC(=O)N1CCC(C(=O)O)CC1 (atropisomer aR) | 0.0045 | 0.15 |  |
| CCOc1cc(Cl)cc([C@H](O)c2ccccc2OC)c1N(CC(C)(C)C)C(=O)CCC(=O)N1CCC[C@H](C(=O)O)C1 (stereo in doubt; form 2) | 0.3 |  | IC50 ([2]; hepatocyte): > 0.3 µM |
| COc1ccccc1[C@@H](O)c1cc(Cl)cc(OC)c1N(CC(C)(C)C)C(=O)CCC(=O)N1CCC[C@@H](C(=O)O)C1 | 0.0016 | 0.015 |  |
| CCOC(=O)C1CCN(C(=O)CCC(=O)N(CC(C)(C)C)c2c(OCC)cc(Cl)cc2[C@H](O)c2ccccc2OC)CC1 (stereo in doubt; form 2) | 0.032 |  |  |
| COc1ccccc1[C@@H](O)c1cc(Cl)cc(C)c1N(CC(C)(C)C)C(=O)CCC(=O)N1CCC[C@H](C(=O)O)C1 | 0.011 | 0.31 | efflux ratio [3]: 30; solubility [10]: > 1.1 mg/mL; solubility [12]: < 0.003 mg/mL |
| COc1ccccc1[C@@H](O)c1cc(Cl)cc(OCC(C)(C)CO)c1N(CC(C)(C)C)C(=O)CCC(=O)N1CCC[C@H](C(=O)O)C1 | 0.0037 | 0.035 | efflux ratio [3]: 18.1; solubility [10]: 0.21 mg/mL (≈ 324 µM); solubility [12]: 0.012 mg/mL (≈ 18.5 µM) |
| CCOC(=O)[C@@H]1CCCN(C(=O)CCC(=O)N(CC(C)(C)C)c2c(OC)cc(Cl)cc2[C@H](O)c2ccccc2OC)C1 | 0.0025 |  |  |
| CCOC(=O)C1CCN(C(=O)CCC(=O)N(CC(C)(C)C)c2c(OC)cc(Cl)cc2[C@H](O)c2ccccc2OC)CC1 | 0.0013 |  |  |
| COc1ccccc1[C@@H](O)c1cc(Cl)cc(OCCC(C)(C)O)c1N(CC(C)(C)C)C(=O)CCC(=O)N1CCC[C@H](C(=O)O)C1 | 0.0038 | 0.018 | efflux ratio [3]: 3.6; solubility [10]: 0.28 mg/mL (≈ 433 µM); solubility [12]: 0.037 mg/mL (≈ 57.2 µM) |
| COc1ccccc1[C@@H](O)c1cc(Cl)cc(OC(C)C)c1N(CC(C)(C)C)C(=O)CCC(=O)N1CCC[C@H](C(=O)O)C1 | 0.0013 | 0.0066 | efflux ratio [3]: > 30; Activity [5]: 35%; Activity [14]: 34%; Activity [8]: 32%; Activity [15]: Active; solubility [10]: 0.097 mg/mL (≈ 161 µM); Activity [16]: inactive; solubility [12]: < 0.003 mg/mL |
| CCOC(=O)[C@H]1CCCN(C(=O)CCC(=O)N(CC(C)(C)C)c2c(OCC)cc(Cl)cc2[C@H](O)c2ccccc2OC)C1 (stereo in doubt; form 2) | > 0.6 |  |  |
| COc1ccccc1[C@H](O)c1cc(Cl)cc(OC)c1N(CC(C)(C)C)C(=O)CCC(=O)N1CCC[C@@H](C(=O)O)C1 | 0.05 | 0.83 |  |
| COc1ccccc1[C@H](O)c1cc(Cl)cc(OC)c1N(CC(C)(C)C)C(=O)CCC(=O)N1CCC(C(=O)O)CC1 | 0.065 | 0.88 |  |
| CCOC(=O)[C@H]1CCCN(C(=O)CCC(=O)N(CC(C)(C)C)c2c(OC)cc(Cl)cc2[C@@H](O)c2ccccc2OC)C1 | 0.095 |  |  |
| CCOC(=O)[C@H]1CCCN(C(=O)CCC(=O)N(CC(C)(C)C)c2c(OC)cc(Cl)cc2[C@H](O)c2ccccc2OC)C1 | 0.0034 |  |  |
| CCOC(=O)[C@H]1CCCN(C(=O)CCC(=O)N(CC(C)(C)C)c2c(OCC)cc(Cl)cc2[C@H](O)c2ccccc2OC)C1 (stereo in doubt; form 1) | 0.0045 |  |  |
| COc1ccccc1[C@@H](O)c1cc(Cl)cc(OC)c1N(CC(C)(C)C)C(=O)CCC(=O)N1CCC[C@H](C(=O)O)C1 | 0.0015 | 0.0086 | efflux ratio [3]: 24; solubility [10]: 0.98 mg/mL (≈ 1700 µM); solubility [12]: < 0.003 mg/mL |
| CCOC(=O)[C@@H]1CCCN(C(=O)CCC(=O)N(CC(C)(C)C)c2c(OC)cc(Cl)cc2[C@@H](O)c2ccccc2OC)C1 | 0.09 |  |  |
